The record followed here is patent US7417060B2, “Aminoalcohol derivatives” (Astellas Pharma Inc., priority 2003, dated 2008).

The subject of the experiment is intravesical pressure (IVP) increase induced by carbachol. The experiment is described as follows: Effect on the increase in intravesical pressure induced by carbachol in anesthetized dog. It counts as in vivo. The note with it: anesthetized female Beagle dogs; test compound 0.010 mg/kg intravenously 30 minutes before carbachol (1.8 μg/kg). The procedure:
Effect on the Increase in Intravesical Pressure Induced by Carbachol in Anesthetized Dog
Female Beagle dogs weighing 8.0-15.0 kg were fasted for 24 hours and maintained under halothane anesthesia. A 12F Foley catheter was lubricated with water soluble jelly, inserted into the urethral orifice and advanced approximately 10 cm until the balloon tip was placed well inside the bladder. The balloon was then inflated with 5 ml of room air and catheter slowly withdrawn just part the first resistance that was felt at the bladder neck. Urine was completely drained out through the catheter, and 30 ml of biological saline was infused. The catheter was connected to pressure transducer, and intravesical pressure (IVP) was continuously recorded. The test compound was administered intravenously at 30 minutes before the administration of carbachol (1.8 μg/kg). Percent inhibition of IVP increase by test compound was calculated by dividing IVPa (IVP increase induced by carbachol after test compound administration) by IVPb (IVP increase induced by carbachol just before test compound administration).

Structures are written as SMILES.

Regarding `CC(C)Sc1cc(-c2ccc(CCN[C@@H](C)[C@H](O)c3ccccc3)cc2)ccc1C(=O)O.Cl` [Test Compound (1), 4′-[2-[[(1S,2R)-2-Hydroxy-1-methyl-2-phenylethyl]-amino]ethyl]-3-(isopropylthio)-4-biphenylcarboxylic acid hydrochloride], the “Percent inhibition of IVP increase” value came to 77%.

For `CC(C)Cc1cc(-c2ccc(CCN[C@@H](C)[C@H](O)c3ccccc3)cc2)ccc1C(=O)NS(C)(=O)=O.Cl` [Test Compound (2), 4′-[2-[[(1S,2R)-2-Hydroxy-1-methyl-2-phenylethyl]-amino]ethyl]-3-isobutyl-N-(methylsulfonyl)-4-biphenylcarboxamide hydrochloride], the “Percent inhibition of IVP increase” value is listed as 76%.

As for `CS(=O)(=O)NC(=O)c1ccc(-c2ccc(CCNC[C@H](O)c3cccnc3)cc2)cc1OC1CCCCC1.Cl.Cl` [Test Compound (3), 3-(Cyclohexyloxy)-4′-[2-[[(2R)-2-hydroxy-2-(3-pyridyl)ethyl]amino]ethyl]-N-(methylsulfonyl)-4-biphenylcarboxamide dihydrochloride], the “Percent inhibition of IVP increase” value amounted to 89%.
